Experimental data from ChEMBL document CHEMBL4431373, “Investigation of Proposed Activity of Clarithromycin at GABAA Receptors Using [(11)C]Flumazenil PET” (ACS Med Chem Lett, 2016).
Calls of active or inactive are those of the source. The rule behind the calls is not given here.

How the values were obtained:
[1] = tested on: Rhesus monkey; assay: In vivo displacement of [11C]FMZ from rhesus monkey GABA-A receptor at 0.5 mg/kg, iv after 50 to 90 mins by PET analysis; format: functional, organism-based; conditions: Macaca mulatta
[2] = tested on: Rhesus monkey; assay: In vivo displacement of [11C]FMZ from rhesus monkey GABA-A receptor assessed as late distribution volume ratio to early distribution volume ratio of […] at 3.5 mg/kg, iv by Logan plot analysis (reference value: 115 to 121 %); format: functional, Macaca mulatta
[3] = biological target: GABA-A receptor; anion channel; assay: Displacement of [3H]FMZ from GABA-A receptor in rat brain after 30 mins by autoradiography; format: tissue-based
[4] = tested on: Rhesus monkey; assay: In vivo displacement of [11C]FMZ from rhesus monkey GABA-A receptor at 3.5 mg/kg, iv after 50 to 90 mins by PET analysis; format: functional, organism-based; conditions: Macaca mulatta
[5] = biological target: GABA-A receptor; anion channel (Rattus norvegicus) (UniProt O09028+P15431+P18506+P18508+P19969+P20236+P23574+P23576+P28471+P28473+P30191+P62813+P63079+P63138+Q91ZM7+Q9ES14); conditions: Brain, 10 uM
Description: Displacement of [3H]FMZ from GABA-A receptor in rat brain at 10 uM preincubated for 30 mins followed by FMZ addition measured up to 16 mins

[6] = tested on: Rhesus monkey; assay: In vivo displacement of [11C]FMZ from rhesus monkey GABA-A receptor assessed late distribution volume ratio to early distribution volume ratio of […] at 7 mg/kg, iv by Logan plot analysis (reference value: 115 to 121 %); format: functional, Macaca mulatta
[7] = tested on: Rhesus monkey; assay: In vivo displacement of [11C]FMZ from rhesus monkey GABA-A receptor at 7 mg/kg, iv after 50 to 90 mins by PET analysis; format: functional, organism-based; conditions: Macaca mulatta
[8] = biological target: T1, GABA-A receptor; anion channel (Homo sapiens) (UniProt P14867+P47870+P18507+P28472+P48169+Q99928+Q9UN88+P34903+O00591+O14764+Q8N1C3+P18505+P78334+P47869+P31644+Q16445); assay: Negative allosteric modulation of GABA-A receptor (unknown origin) at 3 uM by whole cell patch clamp assay
[9] = biological target: T1, GABA-A receptor; anion channel (Homo sapiens); assay: Negative allosteric modulation of GABA-A receptor (unknown origin) at 300 uM by whole cell patch clamp assay

SMILES | Activity [1] | Activity [2] | Ki [3] | inhibition [4] | inhibition [5] | Activity [6] | inhibition [7] | inhibition [8] | inhibition [9]
CCOC(=O)c1ncn2c1CN(C)C(=O)c1cc(F)ccc1-2 | Active | – | – | – | – | – | – | – | –
CC[C@H]1OC(=O)[C@H](C)[C@@H](O[C@H]2C[C@@](C)(OC)[C@@H](O)[C@H](C)O2)[C@H](C)[C@@H](O[C@@H]2O[C@H](C)C[C@H](N(C)C)[C@H]2O)[C@](C)(OC)C[C@@H](C)C(=O)[C@H](C)[C@@H](O)[C@]1(C)O [CLARITHROMYCIN] | – | 108 - 131% | > 10 µM | inactive | inactive | 89 - 186% | inactive | 18% | 45%
